Source: publication PMC5324278, “Novel synthetic analogues of avian β-defensin-12: the role of charge, hydrophobicity, and disulfide bridges in biological functions” (BMC Microbiology, 2017)
Bridge positions count the residues as written; N and C are the ends. Square brackets hold non-standard residues; d marks the D form. Ends that are not written are not given here. Abu = CC[C@H](N)C(=O)O

Key:
[1] = system: Salmonella enteric serovar Typhimurium (ATCC 14028); assay type: cell-based; conditions: for percent of killing of S. Typhimurium: 16 μg/ml
Procedure: (§1) Escherichia coli (ATCC 25922), Pseudomonas aeruginosa (ATCC 27853), Salmonella enteric serovar Typhimurium (ATCC 14028) and Staphylococcus aureus (ATCC 29213) were used to assess the antimicrobial activity of AvBD analogues. All bacterial strains were grown on Luria-Bertani (LB) agar plates or Trypticase Soy Agar with 5% Sheep Blood (TSA, Thermo Fisher Scientific) plates at 37 °C. Antimicrobial activity was determined by a colony counting assay. In brief, bacteria were resuspended in 100-fold diluted Mueller Hinton II broth with 5 mM NaCl (minimal growth medium) to obtain a final bacterial concentration of 2 × 10^5 CFU/ml. Twenty-five microliters of bacterial suspension and 25 μl of AvBD analogue solution were mixed in the wells of a 96-well polypropylene microtiter plate (Nunc™, Thermo Fisher Scientific). The final peptide concentrations were 2, 4, 8, 16, 32, 64 and 128 μg/ml. The minimal growth medium without AvBD peptide was included as a negative control. The bacterial-peptide mixtures were incubated at 37 °C for 2 h, ten-fold serially diluted and plated on LB agar plates. The numbers of bacteria colonies were enumerated after 16 h of incubation at 37 °C. Antimicrobial activity was expressed as percent of killing using the following formula: (CFUcontrol - CFUtreated) / CFUcontrol × 100%. To assess the resistance of AvBD analogues to sodium chloride (NaCl), antimicrobial assays were carried out in the presence of 5 mM, 50 mM, 100 mM or 150 mM NaCl. All assays were performed in triplicate.

[2] = system: E. coli (ATCC 25922); assay type: cell-based, Escherichia coli; conditions: ATCC 25922, 24 h
Procedure: (§2) The minimum inhibitory concentrations (MIC) of AvBDs were determined according to the guidelines of the Clinical and Laboratory Standards Institute (CLSI). The Muller Hinton II broth used in standard MIC assays contained 20–25 mg/L of calcium and 10–12.5 mg/L of magnesium. Modified MICs of AvBDs were also determined under a low-salt and low-nutrient condition by using 100× diluted Muller Hinton II broth containing 0.2 mg/L of calcium, 0.1 mg/L magnesium and 5 mM (292 mg/L) NaCl. MIC obtained under the low-salt and low-nutrient condition was referred to as MIC-ls. AvBD peptides were two-fold serially diluted (2 to 256 μg/ml) in a 96-well microtiter plate. An equal volume (μl) of bacterial suspension was added to each well of the plate. The final bacterial concentration in the wells was 5 × 10^5 CFU/ml. […] To complement MIC-ls assays, the minimum bactericidal concentrations (MBC) were evaluated by sub-culturing the contents of the first two clear wells obtained in the MIC-ls assay onto LB agar plates. All assays were conducted in triplicate. The lowest peptide concentration inhibiting more than 99% of bacterial growth was defined as MBC-ls. AvBD analogues were regarded as bactericidal if the MBC was no more than four times the MIC [29].

[3] = system: S. Typhimurium (ATCC 14028); assay type: cell-based, Salmonella enteric serovar Typhimurium; conditions: ATCC 14028, 24 h
Procedure: as §2

[4] = system: P. aeruginosa (ATCC 27853); assay type: cell-based, Pseudomonas aeruginosa; conditions: ATCC 27853, 24 h
Procedure: as §2

[5] = system: S. aureus (ATCC 29213); assay type: cell-based, Staphylococcus aureus; conditions: ATCC 29213, 24 h
Procedure: as §2

[6] = system: mouse immature dendritic JAWSII cells; experiment: Chemotaxis assay, 48-well microchemotaxis chamber; assay type: cell-based; conditions: Fig. 9; n = 5
Procedure: Migration of JAWSII and CCR2-CHO-K1 cells in response to AvBD-12 analogues was determined using a 48-well microchemotaxis chamber technique as previously described. Chemotaxis buffer (Minimum Essential Medium containing 0.1% BSA, 100U/ml penicillin, and 100 μg/ml streptomycin) and bacterial peptide N-Formyl-methionyl-leucyl-phenylalanine (fMLF, Sigma-Aldrich) were included as negative and positive controls, respectively. The results were presented as chemotactic index (C.I.). C.I. = number of migrated cells induced by AvBDs / number of migrated cells induced by chemotactic buffer. The assay was repeated five times.

[7] = system: Escherichia coli (ATCC 25922); assay type: cell-based; conditions: ATCC 25922, 2 h, 16 μg/ml
Procedure: as §1

[8] = system: Pseudomonas aeruginosa (ATCC 27853); assay type: cell-based; conditions: ATCC 27853, 2 h; for percent of killing of P. aeruginosa: 16 μg/ml
Procedure: as §1

[9] = system: Staphylococcus aureus (ATCC 29213); assay type: cell-based; conditions: ATCC 29213, 2 h; for percent of killing of S. aureus: 16 μg/ml
Procedure: as §1

Row | Substance | killing activity against S. Typhimurium compared with AvBD-12 (in words) ([1]; 2 to 128 μg/ml, 2 h at 37 °C, p < 0.05, Fig. 4) | MBC-ls E. coli (ATCC 25922) [2] [µg/mL] | MIC-ls E. coli (ATCC 25922) [2] [µg/mL] | MBC-ls S. Typhimurium (ATCC 14028) [3] [µg/mL] | MIC-ls S. Typhimurium (ATCC 14028) [3] [µg/mL] | MBC-ls P. aeruginosa (ATCC 27853) [4] [µg/mL] | MIC-ls P. aeruginosa (ATCC 27853) [4] [µg/mL] | MBC-ls S. aureus (ATCC 29213) [5] [µg/mL] | MIC-ls S. aureus (ATCC 29213) [5] [µg/mL] | chemotactic activity for JAWSII cells (in words) [6] | percent of killing of E. coli [7] [%] | percent of killing of P. aeruginosa [8] [%] | percent of killing of S. Typhimurium ([1]; ATCC 14028, 2 h) [%] | percent of killing of S. aureus [9] [%] | killing potency against E. coli retained at 150 mM NaCl [7] | killing potency against P. aeruginosa retained at 150 mM NaCl ([8]; 32 μg/ml) | killing activity against S. Typhimurium retained at 150 mM NaCl ([1]; ATCC 14028, 2 h, 32 μg/ml) | killing activity against S. aureus retained at 150 mM NaCl ([9]; 64 μg/ml)
1 | GPDS[Abu]NHDRGLCRVGNCNPGEYLAKYCFEPVIL[Abu]CKPLSPTPTKT (disulfide 12-27, 17-35) [AvBD-12A4] | weaker action than AvBD-12 | >256 | 128 | >256 | 256 | >256 | 256 | >256 | >256 | – | – | – | – | – | – | – | – | –
2 | GPDS[Abu]NHDRGL[Abu]RVGNCNPGEYLAKY[Abu]FEPVIL[Abu]CKPLSPTPTKT (disulfide 17-35) [AvBD-12A5] | – | 256 | 64 | >256 | 256 | >256 | 256 | >256 | >256 | lost their chemotactic activity | – | – | – | – | – | – | – | –
3 | GPDS[Abu]NHDRGL[Abu]RVGN[Abu]NPGEYLAKY[Abu]FEPVIL[Abu][Abu]KPLSPTPTKT [AvBD-12A6] | – | 256 | 64 | >256 | 256 | >256 | 256 | >256 | >256 | lost their chemotactic activity | – | – | – | – | – | – | – | –
4 | GPHSANHVRGLARVGNANPGLYLAKYAFIPVILAAKPLSPTPTKT [AvBD-12A1] | – | 32 | 8 | 128 | 32 | 256 | 32 | >256 | 256 | – | 88.6 | 72.3 | 95.6 | 77.2 | – | – | – | –
5 | GPRSSNHKRGLSRVGNSNPGKYLAKYAFRPVILAAKPLSPTPTKT [AvBD-12A2] | – | 16 | 4 | 64 | 16 | 32 | 16 | 256 | 256 | – | 100 | 98 | 93.9 | 83.1 | approximately 80% | approximately 80% | 30-60% | 30-60%
